From paper PMC8951032, “Study of Biological Activities and ADMET-Related Properties of Novel Chlorinated N-arylcinnamamides” (International Journal of Molecular Sciences, 2022)
In brackets after ≈: the same amount, converted by molar mass. Where two headings read alike, the source gives them in different places.

What was measured:
[1] = test system: vancomycin-resistant E. faecalis (VRE) 725B; experiment: In vitro antienterococcal activity, microtitration broth MIC; format: cell-based, Enterococcus faecalis; details: 24 h
[2] = test system: vancomycin-resistant E. faecalis (VRE) 342B; experiment: as above; format: cell-based, Enterococcus faecalis; details: 24 h
[3] = test system: S. aureus, MRSA, E. faecalis, VRE, M. smegmatis, M. marinum; experiment: In vitro antimicrobial screening, all tested strains; format: cell-based; details: antibacterial/antimycobacterial screening
[4] = test system: vancomycin-resistant E. faecalis (VRE) 368; experiment: In vitro antienterococcal activity, microtitration broth MIC; format: cell-based, Enterococcus faecalis
[5] = Lipophilicity determination by RP-HPLC (log k, log D); format: physicochemical; details: for log k: MeOH 72%/H2O 28%; for log D6.5: MeOH 72%/acetate buffered saline pH 6.5; for log D7.4: MeOH 72%/acetate buffered saline pH 7.4
Summary of the method: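 Isocratic RP-HPLC on C18 column, 40 °C, 1.0 mL/min, UV 210 nm, dead time from KI. log k from MeOH/water 72:28; log D at pH 7.4 and 6.5 from MeOH/acetate buffered saline 72:28. k and D = (tR − tD)/tD; triplicate runs.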

[6] = test system: Mycobacterium marinum CAMP 5644; experiment: In vitro antimycobacterial activity, broth dilution MIC; format: cell-based; details: CAMP5644, 504 h
[7] = test system: Mycobacterium smegmatis ATCC 700084; experiment: as above; format: cell-based; details: Mycolicibacterium smegmatis
[8] = test system: Staphylococcus aureus ATCC 29213; experiment: In vitro antistaphylococcal activity, microtitration broth MIC; format: cell-based; details: for MIC: Staphylococcus aureus
[9] = test system: human synovial cell line SW982; experiment: In vitro cell viability, CCK-8; format: cell-based; details: 10% fetal bovine serum
Experimental: (§1) The effect of the compounds on viability of eukaryotic cells was evaluated on human leukemia cell line THP-1, human synovial cell line SW982, and isolated primary porcine monocytes-delivered macrophages (MDM). The general cytotoxic effect was studied on THP-1 cells in the serum-free medium (only THP-1 as the only cells used in this study are able to survive in serum-free medium). Most of the compounds had no cytotoxic effect on THP-1 cells. […] This could be caused by the direct interaction of such compounds with serum proteins or by the effect of mitogens, cytokines, and hormones present in the serum. Obviously, the full medium is closer to physiological conditions in living organisms, so it can be assumed that these compounds could be non-toxic there.
(§2) Human monocytic leukemia cell line THP-1 and human synovial cell line SW982 were purchased from the European Collection of Cell Cultures (ECACC, Salisbury, UK) and were used for determination of the influence of test compounds on cell viability, as described previously. These cell lines represent typical suspension and adherent cells, respectively. They were cultivated with test substances in the presence or absence of fetal bovine serum (FBS) in the cultivation medium, and the relative cell viability (the ratio between cells treated with compounds and cells treated only with DMSO) was determined by CCK-8 kit (Sigma) after 24 h.

[10] = test system: human monocytic leukemia cell line THP-1; experiment: In vitro cell viability, CCK-8; format: cell-based; details: Homo sapiens, THP-1
Experimental: as §1, §2

[11] = test system: methicillin-resistant S. aureus SA 3202; experiment: In vitro antistaphylococcal activity, microtitration broth MIC; format: cell-based; details: Staphylococcus aureus
[12] = test system: methicillin-resistant S. aureus (MRSA) 63718; experiment: as above; format: cell-based; details: Staphylococcus aureus
[13] = read-out: log(1/MIC [M]) VRE3 (converted)
[14] = read-out: log(1/MIC [M]) VRE1 (converted)
[15] = 24 h, VRE 368, read-out: log(1/MIC [M]) VRE2 (converted)
[16] = VRE 368, 24 h, read-out: MIC VRE2
[17] = M. marinum CAMP 5644, 21 days, read-out: MIC MM
[18] = M. marinum CAMP 5644, read-out: log(1/MIC [M]) MM (converted)
[19] = ATCC700084, 72 h, M. smegmatis ATCC 700084, three days, read-out: MIC MS
[20] = ATCC700084, M. smegmatis ATCC 700084, read-out: log(1/MIC [M]) MS (converted)
[21] = ATCC29213, 24 h, S. aureus ATCC 29213, read-out: log(1/MIC [M]) SA (converted)
[22] = ATCC29213, S. aureus ATCC 29213, 24 h, read-out: MIC SA
[23] = 24 h, read-out: IC50 SW982 10% FSB
[24] = read-out: log(1/IC50 [M]) SW982 10% FSB (converted)
[25] = 10% fetal bovine serum, 24 h, read-out: IC50 THP-1 10% FSB
[26] = 10% fetal bovine serum, read-out: log(1/IC50 [M]) THP-1 10% FSB (converted)
[27] = serum-free medium, 24 h, read-out: IC50 THP-1 SFM
[28] = serum-free medium, read-out: log(1/IC50 [M]) THP-1 SFM (converted)
[29] = 24 h, MRSA SA 3202, read-out: log(1/MIC [M]) MRSA3 (converted)
[30] = MRSA SA 3202, 24 h, read-out: MIC MRSA3
[31] = 24 h, MRSA 63718, read-out: log(1/MIC [M]) MRSA1 (converted)
[32] = MRSA 63718, 24 h, read-out: MIC MRSA1

Row | Compound | MIC ([1]; read-out: MIC VRE3) [M] | MIC [1, 13] [M] | MIC ([2]; read-out: MIC VRE1) [M] | MIC [2, 14] [M] | antimicrobial activity (in words) [3] | MIC [4, 15] [M] | MIC [4, 16] [M] | log k [5] | log D6.5 [5] | log D7.4 [5] | MIC [6, 17] [M] | MIC [6, 18] [M] | MIC [7, 19] [M] | MIC [7, 20] [M] | MIC [8, 21] [M] | MIC [8, 22] [M] | IC50 [9, 23] [M] | IC50 [9, 24] [M] | IC50 [10, 25] [M] | IC50 [10, 26] [M] | also measured
1 | O=C(/C=C/c1ccc(Cl)c(Cl)c1)Nc1cccc(C(F)(F)F)c1 [2i, (2E)-3-(3,4-Dichlorophenyl)-N-[3-(trifluoromethyl)phenyl]prop-2-enamide] | 4.44e-05 (≈ 16 µg/mL) | 4.47e-05 (≈ 16.1 µg/mL) | 2.22e-05 (≈ 8 µg/mL) | 2.24e-05 (≈ 8.06 µg/mL) | active | 2.24e-05 (≈ 8.06 µg/mL) | 2.22e-05 (≈ 8 µg/mL) | 0.9873 | 0.9915 | 0.9505 | 5.55e-06 (≈ 2 µg/mL) | 5.5e-06 (≈ 1.98 µg/mL) | 5.55e-06 (≈ 2 µg/mL) | 5.5e-06 (≈ 1.98 µg/mL) | 1.38e-06 (≈ 0.497 µg/mL) | 1.39e-06 (≈ 0.501 µg/mL) | > 1e-05 | > 1e-05 | > 1e-05 | > 1e-05 | IC50 [10, 27]: 1.9e-06 ± 1e-06 M; IC50 [10, 28]: 1.91e-06 M; MIC [11, 29]: 1.38e-06 M (≈ 0.497 µg/mL); MIC [11, 30]: 1.39e-06 M (≈ 0.501 µg/mL); MIC [12, 31]: 6.92e-07 M (≈ 0.249 µg/mL); MIC [12, 32]: 6.94e-07 M (≈ 0.25 µg/mL)
2 | O=C(/C=C/c1ccc(Cl)c(Cl)c1)Nc1cc(C(F)(F)F)cc(C(F)(F)F)c1 [2q, (2E)-N-[3,5-bis(Trifluoromethyl)phenyl]-3-(3,4-dichlorophenyl)prop-2-enamide] | 4.67e-06 (≈ 2 µg/mL) | 4.68e-06 (≈ 2 µg/mL) | 9.34e-06 (≈ 4 µg/mL) | 9.33e-06 (≈ 4 µg/mL) | active | 1.86e-05 (≈ 7.97 µg/mL) | 1.87e-05 (≈ 8 µg/mL) | 1.4731 | 1.4967 | 1.4717 | 2.92e-07 (≈ 0.125 µg/mL) | 2.63e-06 (≈ 1.13 µg/mL) | 2.34e-06 (≈ 1 µg/mL) | 1.07e-05 (≈ 4.59 µg/mL) | 1.32e-06 (≈ 0.564 µg/mL) | 2.92e-07 (≈ 0.125 µg/mL) | > 1e-05 | > 1e-05 | > 1e-05 | > 1e-05 | activity against S. aureus and MRSA isolates (in words) [8]: submicromolar; IC50 [10, 27]: 5e-07 ± 1e-06 M; IC50 [10, 28]: 1e-06 M; MIC [11, 29]: 2.95e-07 M (≈ 0.126 µg/mL); MIC [11, 30]: 2.92e-07 M (≈ 0.125 µg/mL); MIC [12, 31]: 1.35e-07 M (≈ 0.0578 µg/mL); MIC [12, 32]: 1.36e-07 M (≈ 0.0582 µg/mL)
3 | O=C(/C=C/c1ccc(Cl)cc1)Nc1cccc(C(F)(F)F)c1 [1i, (2E)-3-(4-Chlorophenyl)-N-[3-(trifluoromethyl)phenyl]prop-2-enamide] | > 0.000786 | > 0.000794 | > 0.000786 | > 0.000794 | showed activity | > 0.000794 | > 0.000786 | 0.8612 | 0.8071 | 0.8105 | > 0.000786 | > 0.000794 | > 0.000786 | > 0.000794 | 6.17e-06 (≈ 2.01 µg/mL) | 6.14e-06 (≈ 2 µg/mL) | > 1e-05 | > 1e-05 | > 1e-05 | > 1e-05 | IC50 [10, 27]: 2.9e-06 ± 1.2e-06 M; IC50 [10, 28]: 2.88e-06 M; MIC [11, 29]: 6.17e-06 M (≈ 2.01 µg/mL); MIC [11, 30]: 6.14e-06 M (≈ 2 µg/mL); MIC [12, 31]: 6.17e-06 M (≈ 2.01 µg/mL); MIC [12, 32]: 6.14e-06 M (≈ 2 µg/mL)
4 | O=C(/C=C/c1ccc(Cl)cc1)Nc1cc(C(F)(F)F)cc(C(F)(F)F)c1 [1q, (2E)-N-[3,5-bis(Trifluoromethyl)phenyl]-3-(4-chlorophenyl)prop-2-enamide] | 0.000325 (≈ 128 µg/mL) | 0.000324 (≈ 127 µg/mL) | 0.00065 (≈ 256 µg/mL) | 0.000646 (≈ 254 µg/mL) | showed activity | 0.000324 (≈ 127 µg/mL) | 0.000325 (≈ 128 µg/mL) | 1.3064 | 1.2925 | 1.2980 | > 0.00065 | > 0.000646 | 2.54e-06 (≈ 1 µg/mL) | 2.51e-06 (≈ 0.989 µg/mL) | 3.16e-07 (≈ 0.125 µg/mL) | 3.18e-07 (≈ 0.125 µg/mL) | > 1e-05 | > 1e-05 | > 1e-05 | > 1e-05 | activity against S. aureus and MRSA isolates (in words) [8]: submicromolar; IC50 [10, 27]: 1e-06 ± 1.1e-06 M; IC50 [10, 28]: 1e-06 M; MIC [11, 29]: 6.31e-07 M (≈ 0.248 µg/mL); MIC [11, 30]: 6.35e-07 M (≈ 0.25 µg/mL); MIC [12, 31]: 3.16e-07 M (≈ 0.125 µg/mL); MIC [12, 32]: 3.18e-07 M (≈ 0.125 µg/mL)
